pIC50: −log10 of the molar value. Where “and” joins values, the source holds several entries; their conditions need not be identical. Equal entries are not always repeated. Where two headings read alike, the source gives them in different places.
What was measured:
MDA-MB-231BR (231BR) = assay: CCK8 anticancer activity / cytotoxicity test, 231BR; format: cell-based
Description: (§1) The IC50 was calculated by SPSS statistics (IBM). […] All cytotoxicity tests were performed in six biological replicates.
(§2) The anticancer activity against 231BR is of highest interest. […] Figure 3 depicts the anticancer activities of these compounds.

CRL-1620 (CRL) = assay: CCK8 anticancer activity / cytotoxicity test, CRL; format: cell-based; details: 48 h
HTB22 = assay: CCK8 anticancer activity / cytotoxicity test, HTB22; format: cell-based; details: read-out: Approximate IC50, primary screening
Description: as §1, §2

HTB131 = assay: CCK8 anticancer activity / cytotoxicity test, HTB131; format: cell-based
[1] = CCK8 cytotoxicity test on normal cell line MCF10A; details: human
Description: (§3) MDA-MB-231 (231) and HTB131 were grown with RPIM-1640 medium (with 10% Fetal Bovine Serum and 2% Penicillin-Streptomycin Solution). MDA-MB-231BR (231BR), CRL-1620 (CRL), and MCF10A were grown with DMEM (with 10% Fetal Bovine Serum and 2% Penicillin-Streptomycin Solution). HTB22 was grown with EMEM (with 10% Fetal Bovine Serum and 2% Penicillin-Streptomycin Solution). Cell lines were taken out from liquid nitrogen and thawed in a 37°C water bath. After thawing, cell cultures were transferred to 75 cm^2 flasks and incubated at 37°C with 5% CO2 for 4–7 days. After reaching 80% of cell confluence, cells were ready for subculturing or testing.
(§4) Anticancer activity tests were performed using a Cell Counting Kit-8 (CCK8, SigmaAldrich) following manufacturer’s instruction ([Shen et al., 2016]). Briefly, 100 µl of diluted cell suspension (approximately 10000 cells) was transferred to 96-well plate, incubated at 37°C with 5% CO2 for 24 h. Then, the compounds were diluted into a serial of concentrations in DMSO. Next, 0.5 µl of diluted compounds were added to 100 µl of cell medium and gently mixed, resulting in the final concentration of DMSO at 0.5%. 100 µl of the compound contained medium were then used to replace the original medium and incubated at 37°C for 48 h. After incubation with compounds, 10 µl of CCK8 reagent was added to each well and mixed by gently tapping the plate. Then, the plate was incubated at 37°C for 2–4 h until the orange color was dark enough to measure. The plate was measured using a Multiskan microplate reader (Fisher Scientific) at 450 nm. The IC50 was calculated by SPSS statistics (IBM). […] All cytotoxicity tests were performed in six biological replicates. Each compound was performed two cycles of screening: primary screening using 10 times serial dilution to determine the approximate concentration and then secondary screening using a narrow concentration range to acquire the accurate IC50.
(§5) The newly synthesized molecules in which their binding affinities were predicted in silico were tested on five different breast cancer lines, MDA-MB-231 (231), MDA-MB-361 (361), HTB131, HTB22, and MDA-MB-231BR (231BR), and one brain cancer cell line, CRL-1620 (CRL). […] Among these cell lines, 231BR attracted most of our interest because it is a brain metastatic specific breast cancer cell line that has 100% rate of brain metastasis and cannot migrate to any other organs ([Yoneda et al., 2001]). The anticancer capacities of each compound were first screened by 10 times dilution to generate different molar concentrations ranging in 5 orders of magnitudes. This wide concentration range was applied for primary screening (Supplementary Table S3) to narrow down the targets. The approximate IC50 was estimated in the primary screening step and used to design the concentration range of the secondary cytotoxicity tests (Supplementary Table S4). […] Anticancer drug taxol (paclitaxel) was used as the reference to estimate the efficacy of each compound. […] The anticancer activity against 231BR is of highest interest. Meanwhile, the same treatments were performed against the normal breast cell line, MCF10A, to test their cytotoxicity. […] A negative logarithm of IC50 was applied to represent the corresponding anticancer activity.

MDA-MB-231 (231) = assay: CCK8 anticancer activity / cytotoxicity test, 231; format: cell-based, human
MCF10A = assay: CCK8 cytotoxicity test on normal cell line MCF10A
Description: as §3, §4, §5

MDA-MB-361 (361) = assay: CCK8 anticancer activity / cytotoxicity test, 361; format: cell-based; details: Homo sapiens
Description: as §1, §2

[2] = 231BR, 48 h, 10 times serial dilution, read-out: Approximate IC50, primary screening
[3] = CRL, 10 times serial dilution, read-out: Approximate IC50, primary screening
[4] = HTB22, 48 h, 10 times serial dilution
[5] = Homo sapiens, MCF-10A, 48 h, read-out: Approximate IC50, primary screening

With CCC1=N/C(=C\c2[nH]c(-c3ccn[nH]3)cc2OC)C=C1 [Compound L9] the pIC50 (MDA-MB-231BR (231BR); [2]) was less than 3.77, the pIC50 (CRL-1620 (CRL); [3]) was less than 3.78 and the pIC50 (HTB22; [4]) was less than 3.78.
For CCC1=N/C(=C\c2[nH]c(-c3ncc[nH]3)cc2OC)C=C1 [Compound L10], the pIC50 (MDA-MB-231BR (231BR); [2]) was 3.55.
Molecule CCC1=N/C(=C\c2[nH]c(-c3ccc4cc[nH]c4c3)cc2OC)C=C1 [Compound L13] has a pIC50 (MDA-MB-231BR (231BR); [2]) of 5.51, a pIC50 (MDA-MB-231BR (231BR); 231BR, 48 h, narrow concentration range, read-out: IC50, secondary cytotoxicity test) of 5.30 and a pIC50 (HTB131; HTB131, 48 h, narrow concentration range, read-out: IC50, secondary cytotoxicity test) of 4.90. For the same molecule, the IC50 at 48 h ([1]; MCF10A normal breast cells) was 3.7 µM, the pIC50 (CRL-1620 (CRL); CRL, narrow concentration range, read-out: IC50, secondary cytotoxicity test) was 5.19 and the pIC50 (MDA-MB-231 (231); Homo sapiens, MDA-MB-231, 231, 48 h, narrow concentration range, read-out: IC50, secondary cytotoxicity test) was 5.46.
In the case of CCC1=N/C(=C\c2[nH]c(-c3ccc4[nH]ccc4c3)cc2OC)C=C1 [Compound L14], the pIC50 (CRL-1620 (CRL); [3]) was less than 4.10 and the pIC50 (HTB22; [4]) was less than 4.10.
Work on CCC1=N/C(=C\c2[nH]c(-c3cccc4cc[nH]c34)cc2OC)C=C1 [Compound L15] yielded a pIC50 (MDA-MB-231BR (231BR); 48 h, 231BR, 48 h, 10 times serial dilution, read-out: Approximate IC50, primary screening) of 4.49.
With CCC1=NC(=Cc2[nH]c(-c3cccn3C(=O)OC(C)(C)C)cc2OC)C=C1 [L ^7] the pIC50 (MDA-MB-231BR (231BR)) was 7.33, the pIC50 (MCF10A) was 5.47 and the “times lower cytotoxicity on normal cell line” value (MCF10A) was “more than 80 times”. The pIC50 (MDA-MB-231 (231)) was 7.12.
In the case of CCCCCC1=C/C(=C/c2[nH]c(-c3ccc[nH]3)cc2OC)N=C1C [Ps, Prodigiosin], the pIC50 (MDA-MB-361 (361); MDA-MB-361, 48 h, read-out: Approximate IC50, primary screening, 361, 48 h, 10 times serial dilution) was less than 5.12, the pIC50 (MDA-MB-361 (361); MDA-MB-361, 48 h, read-out: IC50, secondary cytotoxicity test, 361, 48 h, Table S4) was less than 4.12 and the pIC50 (MDA-MB-361 (361); MDA-MB-361, 48 h, read-out: IC50, secondary cytotoxicity test, 361, 48 h, increased drug concentration) was 3.64. It also gave an IC50 (MDA-MB-361 (361); MDA-MB-361, 48 h, read-out: IC50, secondary cytotoxicity test, 361, 48 h, increased drug concentration (mg/mL)) of 0.074 mg/mL, an IC50 (MDA-MB-231BR (231BR); 48 h, read-out: IC50, secondary cytotoxicity test, 231BR, 48 h) of 0.312 µg/mL and a pIC50 (MDA-MB-231BR (231BR); 48 h, read-out: IC50, secondary cytotoxicity test, 231BR, 48 h, narrow concentration range) of 6.02. For the same molecule, the pIC50 (HTB131; 48 h, read-out: Approximate IC50, primary screening) was 5.12 to 6.12, the IC50 (HTB131; 48 h, read-out: IC50, secondary cytotoxicity test) was 2.81 µM and 0.91 µg/mL and the IC50 at 48 h [1] was 8.75 µM and 2.84 µg/mL. The pIC50 (MCF10A; [5]) was 5.12, the pIC50 (CRL-1620 (CRL); read-out: Approximate IC50, primary screening) was 5.12 to 6.12 and the IC50 (CRL-1620 (CRL); read-out: IC50, secondary cytotoxicity test) was 4.64 µM and 1.5 µg/mL. For the same molecule, the pIC50 (HTB22; 48 h) was less than 4.12, the pIC50 (MDA-MB-231 (231); Homo sapiens, MDA-MB-231, 48 h, read-out: Approximate IC50, primary screening) was 5.12 to 6.12 and the IC50 (MDA-MB-231 (231); Homo sapiens, MDA-MB-231, 48 h, read-out: IC50, secondary cytotoxicity test) was 0.511 µg/mL and 1.58 µM.
CC(=O)O[C@H]1C(=O)[C@@]2(C)[C@H]([C@H](OC(=O)c3ccccc3)[C@]3(O)C[C@H](OC(=O)[C@H](O)[C@@H](NC(=O)c4ccccc4)c4ccccc4)C(C)=C1C3(C)C)[C@]1(OC(C)=O)CO[C@@H]1C[C@@H]2O [Taxol, paclitaxel, reference compound] gave a pIC50 (MDA-MB-361 (361); MDA-MB-361, 361, 48 h, 10 times serial dilution, read-out: Approximate IC50, primary screening) of less than 5.12, a pIC50 (MDA-MB-231BR (231BR); [2]) of 7.41 and a pIC50 (HTB131; HTB131, 48 h, 10 times serial dilution, read-out: Approximate IC50, primary screening) of 7.24. The pIC50 (MCF10A; [5]) was less than 5.12, the “times lower cytotoxicity on normal cell line” value (MCF10A; normal cell line MCF10A relative to 231BR) was “more than 700 times” and the pIC50 (CRL-1620 (CRL); [3]) was 7.55. The pIC50 (MDA-MB-231 (231); Homo sapiens, MDA-MB-231, 231, 48 h, 10 times serial dilution, read-out: Approximate IC50, primary screening) was 7.67.
